For eight molecules, IC50 results are on record in ChEMBL document CHEMBL5576078, “Discovery of a potent, orally available furopyridine derivative as a novel selective bromodomain and extra-terminal domain (BET)-first bromodomain (BD1) inhibitor” (Bioorg Med Chem Lett, 2024).

Bounds are passed on as bounds.

Assay [1] has as its target T1, Bromodomain-containing protein 4 (Homo sapiens, UniProt O60885). Nature of the assay: Inhibition of BRD4 BD1 (unknown origin) by TR-FRET assay. On the technique in general: TR-FRET usually uses a lanthanide donor and a delayed reading to cut background.
The target in assay [2] is T1, Bromodomain-containing protein 4. Nature of the assay: Inhibition of BRD4 BD2 (unknown origin) by TR-FRET assay.
For assay [3] the target is unchanged. Nature of the assay: Inhibition of BRD4 BD1 (unknown origin).
Assay [4] in a line: Inhibition of LPS induced IL-6 production in HMVEC cells. The following applies: Homo sapiens.

A word on the IC50: it is the midpoint of a concentration-inhibition curve. Higher therefore signals a need for much substance. Consider `C[C@@H]1CN(S(C)(=O)=O)CCN1Cc1cc2c(=O)n(C)cc(-c3cccc(NS(C)(=O)=O)c3)c2o1`, for which the IC50 in assay [1] is 27 nM; in assay [2] it was 1500 nM.

Consider `C[C@@H]1CN(S(C)(=O)=O)CCN1Cc1cc2c(=O)n(C)cc(-c3cc(Cl)nn3CC3CCOCC3)c2o1`, for which the IC50 was 180 nM in assay [1] and 3600 nM in assay [2].

On to `CC(=O)Nc1cc(-c2cn(C)c(=O)c3cc(CN4CCN(S(C)(=O)=O)C[C@H]4C)oc23)ccn1`, for which the IC50 in assay [1] is 63 nM; in assay [2], 650 nM; in assay [3], at most 100 nM.

Turning to `C[C@@H]1CN(S(C)(=O)=O)CCN1Cc1cc2c(=O)n(C)cc(-c3nc(Cl)c(Cl)n3CC3CCOCC3)c2o1`, the IC50 in assay [1] turned out to be 150 nM; in assay [2], 8800 nM.

Regarding `C[C@@H]1CN(S(C)(=O)=O)CCN1Cc1cc2c(=O)n(C)cc(-c3cc(NS(C)(=O)=O)ccc3OCC3CC3)c2o1`, the IC50 amounted to 11 nM in assay [1] and 20 nM in assay [2].

Regarding `Cc1sc2c(c1C)C(c1ccc(Cl)cc1)=N[C@@H](CC(=O)OC(C)(C)C)c1nnc(C)n1-2`, 45 nM corresponded to half-maximal inhibition in assay [4] (IC50).

In the case of `C[C@@H]1CN(S(C)(=O)=O)CCN1Cc1cc2c(=O)n(C)cc(-c3nccnc3OCC3CC3)c2o1`, the values for the IC50 in assay [1] and in assay [2] were 18 nM and 1600 nM, respectively.

For `C[C@@H]1CN(S(C)(=O)=O)CCN1Cc1cc2c(=O)n(C)cc(-c3nc(Cl)cn3CC3CCOCC3)c2o1`, the IC50 in assay [1] is 53 nM; in assay [2] it was over 10000 nM.
